Measured values published in US10093696B2, “Nitric oxide donating carnosine compounds” (NICOX SCIENCE IRELAND, priority 2014, dated 2018).

Key:
[1] = test system: ocular normotensive rabbits; assay: Intraocular pressure (IOP) lowering activity in ocular normotensive New Zealand White rabbits; format: in vivo, New Zealand White (NZW) rabbits; conditions: 1% eye drops; for duration of IOP reduction after single application (in words): compared to the reference compound; for IOP change 60 minutes / IOP change 120 minutes / IOP change 180 minutes / IOP change 240 minutes / IOP change 30 minutes / IOP change 300 minutes: single topical application
Procedure: The present study evaluated the long lasting intraocular pressure lowering effect of single application of two compounds of the inventions (compound (1a) and compound (4a)) with respect to a prior art compound, in an ocular normotensive animal model (rabbit) at the same concentrations.
Adult male New Zealand White (NZW) rabbits weighting 1.8-2.0 Kg were used in the experiments.
(§1) IOP was measured using a pneumatonometer 30 CLASSIC™ before topical application (basal) and at different time points (30, 60, 120, 240 and 300 min) thereafter. Vehicle (5% cremophor-EL; 0.3% DMSO; 0.2 mg/ml bac in PBS pH 6.0) or compound of the invention were instilled as eye drops into the conjunctiva pocket. Eyes were randomly assigned to different treatment groups. One drop of 0.4% oxybuprocaine hydrochloride (Novesine, Sandoz) was instilled in each eye immediately before each set of pressure measurements. Results are reported in Table 2 and they are expressed as IOP change (at 60, 120, 180 and 240 minutes following topical administration) versus vehicle and versus IOP at basal.
Ocular Normotensive Rabbit Model
as §1, with “(9) (1%)” for “of the invention”, “measurements.” for “measurements. Results are reported in Table 2 and they are expressed as IOP change (at 60, 120, 180 and 240 minutes following topical administration) versus vehicle and versus IOP at basal.”
Experimental data are reported in Table 4 and they are expressed as IOP change (at 60, 120, 180 and 240 minutes following topical administration) versus vehicle and versus IOP at basal.
The IOP-lowering effects of compound (9) and of the Reference compound were assessed in the same normotensive rabbit model, see Example 10, but using different groups of […] rabbits.

[2] = test system: hypertonic saline-induced IOP increase in rabbits; assay: Intraocular pressure (IOP) lowering activity in hypertonic saline-induced IOP increase in rabbits; format: in vivo, New Zealand White rabbits; conditions: for IOP reduction after single application (in words): compared to ISMN and timolol; for IOP change 60 minutes / IOP change 120 minutes / IOP change 240 minutes: single topical application
Procedure: The present study evaluated the intraocular pressure lowering effect of single applications of two compounds of the inventions (compound (1a) and compound (4a)) and two reference compounds at the same concentrations and in rabbits with induced IOP increase.
Adult male New Zealand White rabbits weighting 1.8-2.0 Kg were used in the experiments.
The transient increase in IOP was induced by the injection of 0.1 ml of hypertonic saline solution (5%) into the vitreous bilaterally (Krauss et al., 2011, Orihashi et al., 2005).
(§2) IOP was measured using a Tono-Pen XL prior to hypertonic saline injection (basal) and at 30, 60, 120 and 240 min thereafter. Vehicle (5% cremophor-EL; 0.3% DMSO; 0.2 mg/ml Benzalkonium chloride in PBS pH 6.0) or compound (1.0%) was instilled as eye drops immediately after hypertonic saline injection. Eyes were randomly assigned to different treatment groups. Vehicle and compounds were directly instilled into the conjunctiva pocket at the desired doses. One drop of 0.4% oxybuprocaine hydrochloride (Novesine, Sandoz) was instilled in each eye immediately before each set of pressure measurements.
Results are reported in Table 1 and they are expressed as IOP change (at 60, 120 and 240 minutes following topical administration) versus vehicle and versus IOP at basal before hypertonic saline injection.
Hypertonic Saline-Induced IOP Increase Rabbit Model
as §2, with “compound (9)” for “compound”, “compound (9)” for “compounds”
Experimental data are reported in Table 3 and they are expressed as IOP change (at 60, 120 and 240 minutes following topical administration) versus vehicle and versus IOP at basal before hypertonic saline injection
The hypotensive effects of compound (9) and of ISMN and timolol were evaluated using the same transient ocular hypertensive rabbit model, see Example 9, but in different groups of hypertensive rabbits.

[3] = Table 2, versus vehicle and versus basal IOP
[4] = Table 1, conc. 1% eye drops, versus vehicle and versus basal IOP
[5] = Table 4, versus vehicle and basal, reference from different groups of rabbits (Example 10)
[6] = Table 3, 1% eye drops, versus vehicle and basal, references from different groups of rabbits (Example 9)

Structure (SMILES)	duration of IOP reduction after single application (in words) [1]	IOP change 60 minutes [1, 3] [mmHg]	IOP change 120 minutes [1, 3] [mmHg]	IOP change 180 minutes [1, 3] [mmHg]	IOP change 240 minutes [1, 3] [mmHg]	IOP reduction after single application (in words) ([2]; 1% eye drops)	IOP change 60 minutes [2, 4] [mmHg]	IOP change 120 minutes [2, 4] [mmHg]	IOP change 240 minutes [2, 4] [mmHg]	IOP change 30 minutes [1, 5] [mmHg]	IOP change 60 minutes [1, 5] [mmHg]	IOP change 120 minutes [1, 5] [mmHg]	IOP change 180 minutes [1, 5] [mmHg]	IOP change 240 minutes [1, 5] [mmHg]	IOP change 300 minutes [1, 5] [mmHg]	IOP change 60 minutes [2, 6] [mmHg]	IOP change 120 minutes [2, 6] [mmHg]	IOP change 240 minutes [2, 6] [mmHg]
COC(=O)[C@H](Cc1c[nH]cn1)NC(=O)CCNC(=O)CCCCO[N+](=O)[O-].Cl [Compound (1a), (S)-methyl-3-(1H-imidazol-4-yl)-2-(3-(5-(nitrooxy)pentanamido)propanamido)propanoate hydrochloride]	significantly longer IOP reduction	−1.2 ± 1.0	−1.5 ± 0.9	−1.9 ± 0.9	−1.7 ± 1.2	significant IOP reduction	−11.4 ± 0.8	−12.9 ± 0.4	−7.4 ± 0.5									
O=C(CCCCCO[N+](=O)[O-])NCCC(=O)N[C@@H](Cc1c[nH]cn1)C(=O)O [Compound (4a), (S)-3-(1H-imidazol-4-yl)-2-(3-(6-(nitrooxy)hexanamido)propanamido) propanoic acid 2,2,2-trifluoroacetate]	significantly longer IOP reduction	−1.6 ± 0.4	−1.5 ± 0.6	−1.4 ± 0.6	−0.9 ± 0.6	significant IOP reduction	−7.6 ± 1.6	−9.0 ± 1.2	−5.3 ± 0.6									
COC(=O)[C@H](Cc1c[nH]cn1)NC(=O)CCNC(=O)CCC[C@@H](CO[N+](=O)[O-])O[N+](=O)[O-] [Compound (9), (S)-methyl 2-(3-((S)-5,6-bis(nitrooxy)hexanamido)propanamido)-3-(1H-imidazol-4-yl)propanoate]	long lasting IOP-lowering effect					significant IOP reduction				−1.6 ± 0.2	−1.0 ± 0.4	−1.3 ± 0.2	−1.3 ± 0.3	−1.5 ± 0.4	−1.5 ± 0.4	−7.2 ± 1.0	−6.4 ± 1.0	−3.9 ± 0.9
O=[N+]([O-])O[C@@H]1CO[C@H]2[C@@H]1OC[C@@H]2O [ISMN, Isosorbide mononitrate, reference compound]							−0.7 ± 2.9	−6.6 ± 1.8	−1.2 ± 1.3							−0.7 ± 2.9	−6.6 ± 1.8	−1.2 ± 1.3
NCCC(=O)N[C@@H](Cc1c[nH]cn1)C(=O)NC[C@H](CO[N+](=O)[O-])O[N+](=O)[O-].O=C(O)C(F)(F)F [Ref. compound, (R)-3-((S)-2-(3-aminopropanamido)-3-(1H-imidazol-4-yl)propanamido)propane-1,2-diyl dinitrate 2,2,2-trifluoroacetate, reference compound]		−0.8 ± 0.6	−0.3 ± 0.4	−0.2 ± 0.4	−0.05 ± 0.6					−1.0 ± 0.5	−0.8 ± 0.6	−0.3 ± 0.4	−0.2 ± 0.4	−0.05 ± 0.6	−0.7 ± 0.4			
CC(C)(C)NC[C@H](O)COc1nsnc1N1CCOCC1 [Timolol, reference compound]							−5.7 ± 1.4	−8.4 ± 1.2	0.2 ± 1.2							−5.7 ± 1.4	−8.4 ± 1.2	0.2 ± 1.2
